We go through one compound from patent US20110312968A1, “METHOD FOR OPTIMIZING THE TREATMENT OF CHRONIC MYELOID LEUKEMIA WITH ABL TYROSINE KINASE INHIBITORS” (priority 2008, published 2011).

Experiment [1] relates to Shp1 expression in KCL22r cells. The experiment in a line: 5-Azacytidine treatment of Ima-resistant KCL22r cells: Shp1 expression. Conditions: Ima-resistant KCL22r cell line; along with demethylation of the SHP1 promoter region. It is filed as cell-based. The text has this:
(§1) In this study, we have first used, as model system, a couple of Ima-sensitive (KCL22s) and Ima-resistant (KCL22r) KCL22 cell lines. In these cells, Ima resistance is independent by the oncogenic Bcr/Abl activity. We have found a very low level of Shp1 (both mRNA and protein), a protein with a tumour suppressor activity, in the KCL22r resistant cells, when compared to KCL22s sensitive cells. […] Gain-of-function mutations have been described in various hemopoietic neoplasias including Juvenile Chronic Myelomonocytic Leukemia. In Ph+ cells, oncogenic Bcr/Abl protein activates Shp2 through Gab2, an adaptor protein that, once phosphorylated is able to bind SH2 domain of Shp2. Through complex interactions that may involve the two carboxy-terminal tyrosine residues (542 and 580) Shp2 is also a signal transducer of growth factor receptor. We hypothesized that, Shp1, through dephosphorylation, might modulate the activity of Shp2 and constitute an important mechanism of Ima resistance. […] The data on primary cells support the role of Shp1 in Ima resistance in patients.

The subject of another experiment is KCL22r cells. The experiment in a line: 5-Azacytidine treatment of Ima-resistant KCL22r cells: Ima sensitivity (Ima growth inhibition). Conditions: Ima-resistant KCL22r cell line after 5-AC treatment. Type of experiment: cell-based.
Text: as §1

In the case of `Nc1ncn([C@@H]2O[C@H](CO)[C@@H](O)[C@H]2O)c(=O)n1` [5-Azacytidine], in experiment [1], the “expression of Shp1” value is recorded as “re-induced expression of Shp1”. Moreover, in the experiment with KCL22r cells, the “Ima sensitivity, i.e. Ima growth inhibition” value is given as “re-established the Ima sensitivity”.
